Columns and labels:
[1] = Fractional α‐helicity by circular dichroism (CD) spectroscopy; assay type: physicochemical; settings: for fH (exp), measured fractional helicity via CD spectroscopy: 60 μM peptide, 10 mM sodium phosphate buffer pH 7.4, 4 °C, CDSSTR algorithm on DichroWeb
[2] = target: Spike RBD RBD (Severe acute respiratory syndrome coronavirus 2), P0DTC2; assay: MST; settings: modification not given

Row | Molecule | fH (exp), measured fractional helicity via CD spectroscopy [1] [%] | α‐helicity from CD spectra (in words) ([1]; 60 μM, 10 mM sodium phosphate buffer, pH 7.4, 4 °C) | Kd [2] [nM]
1 | Ac‐ E QAK AAA DK AA HEAE AAA YQ K ‐NH2 [P‐3‐3] | 42 | pronounced α‐helicity | –
2 | Ac‐βHAsp‐[ProM‐5]‐QAKTFLDKFNHEAEDLFYQ‐NH2 [P‐1‐1, βHAsp‐ProM‐5 N‐capped peptide of ACE2 α1 Gln24 to Gln42] | 4 | – | –
3 | Ac‐βHAsp‐P‐P‐QAKTFLDKFNHEAEDLFYQ‐NH2 [P‐1‐2] | 4 | – | –
4 | Ac-QAKTFLDKFNHEAEDLFYQ-NH2 [P‐1‐3, N‐acetylated parent peptide, α1 from Gln24 to Gln42] | ≤1 | – | –
5 | Ac‐ E QAKTFLDKFNHEAEDLFYQ K ‐NH2 [P‐2‐3] | 5 | – | –
6 | PPEQAKTFLDKFNHEAEDLFYQK [ACE2 alpha1 peptide P-2-2] | – | – | 62
7 | EQAKTFLDKFNHEAEDLFYQK [ACE2 alpha1 peptide P-2-1] | – | – | 1210

Reference: PMC9350387, “Synthetic α‐Helical Peptides as Potential Inhibitors of the ACE2 SARS‐CoV‐2 Interaction” (Chembiochem, 2022)
